Measured values taken from patent EP0825877B1, “COMPOSITION FOR PREVENTION OF POSTERIOR CAPSULE OPACIFICATION” (Pfizer Health AB, priority 1995, dated 1996).

Key:
[1] = system: secondary cataract formation; test: In vivo secondary cataract formation (PCO wet mass), 5-FU single dose versus slow release; design: species or system rabbits; details: for inhibition of PCO: PCO measured as wet mass
Procedure: 5 mg of 5-FU was given to rabbits either as a single dose (instant release) or as a slow release formulation prepared according to Example 3 where 5 mg 5-FU was released over 3 or 12 days in vivo. The amount of secondary cataract formation in the rabbits were evaluated according to Lundgren at al (Lundgren B, Jonsson E and Rolfsen W, 1992, Acta Ophthalmol. Suppl 205:25-28). The single saline dose of 5-FU reduced the secondary cataract formation by 50% while the SR-formulation (SR-3 and SR-10) reduced the secondary cataract formation by 70 and 100% respectively.

[2] = Diffusion experiment in a Sundelöf cell; assay type: physicochemical; details: 100 µg/ml of Doxorubicin; Sundelöfcell; hyaluronate 10 mg/ml
Procedure: Doxorubicin is slowly released from the hyaluronate-doxorubicine solution. […] The diffusion of Doxorubicine out of the hyaluronate solution is more than three times slower than the diffusion of doxorubicine in water. In a diffusion experiment using 100 µg/ml of Doxorubicin in a Sundelöfcell (Sundelöf L-O, 1982, Anal. Biochem, 127,282-286, Laurent T C, Preston B N Sundelöf L-O Van Damme M P, 1982, Anal. Biochem, 127, 287-292), it took 20 hours for 20 % of doxorubicin in water to diffuse into the upper compartment as compared to 70 hours for the doxorubicine in hyaluronate (10 mg/ml).

[3] = system: secondary cataract formation; test: In vivo study in rabbits: secondary cataract weighed two months after phacoemulsification, IOL implantation and doxorubicin injection; design: species or system Albino rabbits; details: 1 µg doxorubicin; 100 µl into the capsular bag behind the IOL; two months postoperatively
Procedure: Albino rabbits were used. In both eyes the crystalline lens was removed by phacoemusification. In both eyes a PMMA IOL was implanted into the capsular bag. In one eye 100 µl of the doxorubicin-Healon slution was injected into the capsular bag behind the IOL. The fellow eye received 100 µ 1 Healon. Two months postoperatively the animals were killed, and the secondary cataracts were removed and weighed to the neariest mg. In one group the doxorubicin was injected dissolved in ta buffer solution instead of Healon. This in order to compare the efficacy when doxorubicin was dissolved in either Healon or buffer. There was a dose dependent inhibitory effect of doxorubicin dissolved in Healon. The doses of 3, 1 and 0.3 µg all gave a significant decrease of the secondary cataract formation. When comparing the dosage 1 µg injected in either Healon of buffer, there was a significant better inibitory effect when doxorubicin was delivered in Healon.
The amount of secondary cataract tissue was typically: […]

time for 20 % of doxorubicin to diffuse into the upper compartment [2] | SMILES | inhibition of PCO ([1]; 5 mg administered as a single dose) | inhibition of PCO ([1]; 5 mg delivered over 2-3 days) | inhibition of PCO ([1]; 5 mg delivered over 10-12 days) | reduction of secondary cataract formation ([1]; 5 mg of 5-FU, single saline dose or slow release over 3 or 12 days) | amount of secondary cataract tissue [3]
 | O=c1[nH]cc(F)c(=O)[nH]1 [5-FU, 5-fluoro-uracil] | 50% | 70% | > 90% | 50% | 
20 h | COc1cccc2c1C(=O)c1c(O)c3c(c(O)c1C2=O)C[C@@](O)(C(=O)CO)C[C@@H]3O[C@H]1C[C@H](N)[C@H](O)[C@H](C)O1 [doxorubicin in buffer, doxorubicin] |  |  |  |  | 65 ± 15 mg
